Data from ChEMBL document CHEMBL1123301, “Structure-activity study of 6-substituted 2-pyranones as inactivators of alpha-chymotrypsin” (J Med Chem, 1986).

What was measured:
[1] = target: Chymotrypsinogen A (Bos taurus) (UniProt P00766); assay: Binding affinity towards alpha-chymotrypsin from bovine pancreas; The compound was too insoluble to obtain reliable data
[2] = target: Chymotrypsinogen A (Bos taurus) (UniProt P00766)
[3] = target: Chymotrypsinogen A (Bos taurus) (UniProt P00766); remark: listed apart in the source
[4] = target: Chymotrypsinogen A (Bos taurus) (UniProt P00766); remark: listed apart in the source
[5] = Binding affinity towards alpha-chymotrypsin from bovine pancreas; set-up: species or system Bos taurus

Structure (SMILES): O=c1oc(Br)ccc1Cc1ccc2ccccc2c1
- Ki [1]: The compound was too insoluble to obtain reliable data
- kinact [2]: 0.0239 min⁻¹

Structure (SMILES): O=c1ccc(-c2ccccc2)c(Cl)o1
- K inact [3]: No inactivation

Structure (SMILES): CCCCc1ccc(=O)oc1Cl
- K inact [4]: 0.00217 min⁻¹

Structure (SMILES): O=c1ccc(-c2ccccc2)co1
- K inact [3]: No inactivation

Structure (SMILES): O=c1occcc1-c1ccccc1
- Ki [5]: 160 µM
- K inact [3]: No inactivation

Structure (SMILES): CCc1ccc(=O)oc1Cl
- K inact [4]: 0.00551 min⁻¹

Structure (SMILES): O=c1oc(Cl)ccc1-c1ccccc1
- K inact [3]: No inactivation
